Test results taken from patent US20100120050A1, “Biomarkers For Assessing Altherosclerotic Potential” (ENTELOS, INC., priority 2008, published 2010).
Like-named read-outs stand apart in the source and are kept apart here.

Columns and labels:
hepatic genes (liver) = test system: hepatic genes (liver)
Description: While the molecular target for PPARγ is not in the liver, it represents the effects of changes in metabolism of the whole animal, which impact liver lipoprotein production and clearance.
Male Sprague-Dawley (Crl:CD® (SD)(IGS)BR) rats (Charles River Laboratories, Portage, Mich.), weight matched, 7 to 8 weeks of age, were housed individually in hanging, stainless steel, wire-bottom cages in a temperature (66-77° F.), light (12-hour dark/light cycle) and humidity (30-70%) controlled room. Water and rodent diet were available ad libitum throughout the 5 day acclimatization period and during the 5 day treatment period. Housing and treatment of the animals were in accordance with regulations outlined in the USDA Animal Welfare Act (9 CFR Parts 1, 2 and 3).
Rats (three per group) were dosed daily at either a low or high dose. […] Animals were necropsied on days 0.25, 1, 3, and 5. Up to 13 tissues (e.g., liver, kidney, heart, bone marrow, blood, spleen, brain, intestine, glandular and nonglandular stomach, lung, muscle, and gonads) were collected for histopathological evaluation and microarray expression profiling on the Affymetrix Rat Whole Genome RG230 v2 platform. In addition, a clinical pathology panel consisting of 37 clinical chemistry and hematology parameters was generated from blood samples collected on days 3 and 5.
Gene expression profiling, data processing and quality control were performed using protocols recommended by. Briefly, liver samples from 3 rats were chosen at random from each treatment and control group for each timepoint for expression profile analysis on the Affymetrix Rat Whole Genome RG230 v2 microarray (Affymetrix, Santa Clara, Calif.). Log transformed signal data for all probes were array-wise normalized using the Affymetrix MASS algorithm. Expression log ratios of base 10 (log(10) ratios) were computed as the difference between the logs of the averaged normalized experimental signals and the averaged normalized time-matched vehicle control signals for each gene.

[1] = clinical trials and post-marketing; cited from earlier work

## CN(CCOc1ccc(CC2SC(=O)NC2=O)cc1)c1ccccn1 (stereo not shown) [rosiglitazone]
Hepatic genes (liver); rat liver, probe AA891362, Rn.92789, oral gavage, experiments of Table 3
  Average Log (10) Ratio: L-3-hydroxyacyl-Coenzyme A dehydrogenase, short chain: −0.205
Hepatic genes (liver); rat liver, probe AA899304, Rn.4054, oral gavage, experiments of Table 3
  Average Log (10) Ratio: acetyl-coenzyme A acetyltransferase 1: 0.546
Hepatic genes (liver); rat liver, probe AA945548, Rn.91296, oral gavage, experiments of Table 3
  Average Log (10) Ratio: transferrin: −0.376
Hepatic genes (liver); rat liver, probe AF286470, Rn.801, oral gavage, experiments of Table 3
  Average Log (10) Ratio: sterol regulatory element binding factor 1: −0.464
Hepatic genes (liver); rat liver, probe AI176576, Rn.6975, oral gavage, experiments of Table 3
  Average Log (10) Ratio: CCAAT/enhancer binding protein (C/EBP), delta: −0.407
Hepatic genes (liver); rat liver, probe AI179334, Rn.9486, oral gavage, experiments of Table 3
  Average Log (10) Ratio: fatty acid synthase: −0.182
Hepatic genes (liver); rat liver, probe AI385341, Rn.9753, oral gavage, experiments of Table 3
  Average Log (10) Ratio: peroxisome proliferator activated receptor alpha: 0.461
Hepatic genes (liver); rat liver, probe AI406700, Rn.9737, oral gavage, experiments of Table 3
  Average Log (10) Ratio: perilipin: 0.137
Hepatic genes (liver); rat liver, probe AI713204, Rn.40396, oral gavage, experiments of Table 3
  Average Log (10) Ratio: monoglyceride lipase: 0.439
Hepatic genes (liver); rat liver, probe AW526669, Rn.169550, oral gavage, experiments of Table 3
  Average Log (10) Ratio: phosphatidylinositol 3-kinase, C2 domain containing, gamma polypeptide: 0.692
Hepatic genes (liver); rat liver, probe AY081195, Rn.40396, oral gavage, experiments of Table 3
  Average Log (10) Ratio: monoglyceride lipase: 0.621
Hepatic genes (liver); rat liver, probe BE105603, Rn.4090, oral gavage, experiments of Table 3
  Average Log (10) Ratio: mitogen-activated protein kinase 8: −0.104
Hepatic genes (liver); rat liver, probe BF396857, Rn.46942, oral gavage, experiments of Table 3
  Average Log (10) Ratio: ELOVL family member 6, elongation of long chain fatty acids (yeast): 0.495
Hepatic genes (liver); rat liver, probe BF398848, Rn.801, oral gavage, experiments of Table 3
  Average Log (10) Ratio: sterol regulatory element binding factor 1: −0.461
Hepatic genes (liver); rat liver, probe BF407188, Rn.15135, oral gavage, experiments of Table 3
  Average Log (10) Ratio: RIKEN cDNA 1500016L11 (DBSS): −0.448
Hepatic genes (liver); rat liver, probe BG372713, Rn.40396, oral gavage, experiments of Table 3
  Average Log (10) Ratio: monoglyceride lipase: 0.551
Hepatic genes (liver); rat liver, probe BG376902, Rn.11094, oral gavage, experiments of Table 3
  Average Log (10) Ratio: Pyruvate carboxylase: −0.172
Hepatic genes (liver); rat liver, probe BG377636, Rn.98393, oral gavage, experiments of Table 3
  Average Log (10) Ratio: acetyl CoA transferase-like (DBSS): 0.519
Hepatic genes (liver); rat liver, probe BI278687, Rn.117434, oral gavage, experiments of Table 3
  Average Log (10) Ratio: phospholipid transfer protein (DBSS): −0.378
Hepatic genes (liver); rat liver, probe BI281656, Rn.39132, oral gavage, experiments of Table 3
  Average Log (10) Ratio: guanine nucleotide binding protein, alpha stimulating, olfactory type: 0.107
Hepatic genes (liver); rat liver, probe BI282488, Rn.3786, oral gavage, experiments of Table 3
  Average Log (10) Ratio: acetyl-Coenzyme A acyltransferase 2 (mitochondrial 3-oxoacyl-Coenzyme A thiolase): 0.679
Hepatic genes (liver); rat liver, probe BI288209, Rn.44456, oral gavage, experiments of Table 3
  Average Log (10) Ratio: glycerol-3-phosphate acyltransferase, mitochondrial: −0.183
Hepatic genes (liver); rat liver, probe BI292438, Rn.79322, oral gavage, experiments of Table 3
  Average Log (10) Ratio: elongation of very long chain fatty acids (FEN1/Elo2, SUR4/Elo3, yeast)-like 3 (DBSS): −0.042
Hepatic genes (liver); rat liver, probe BI850137, Rn.83595, oral gavage, experiments of Table 3
  Average Log (10) Ratio: NCI_CGAP_Emb2 cDNA clone IMAGE: 4176354: −0.414
Hepatic genes (liver); rat liver, probe BM389330, Rn.18101, oral gavage, experiments of Table 3
  Average Log (10) Ratio: pyruvate dehydrogenase kinase, isoenzyme 3 (mapped): −0.646
Hepatic genes (liver); rat liver, probe BM390399, Rn.9437, oral gavage, experiments of Table 3
  Average Log (10) Ratio: 3-hydroxy-3-methylglutaryl-Coenzyme A reductase: 0.392
Hepatic genes (liver); rat liver, probe D14989, Rn.91378, oral gavage, experiments of Table 3
  Average Log (10) Ratio: sulfotransferase family 2A, dehydroepiandrosterone (DHEA)-preferring, member 1: 0.570
Hepatic genes (liver); rat liver, probe J02582, Rn.32351, oral gavage, experiments of Table 3
  Average Log (10) Ratio: apolipoprotein E: −0.324
Hepatic genes (liver); rat liver, probe J02585, Rn.1023, oral gavage, experiments of Table 3
  Average Log (10) Ratio: stearoyl-Coenzyme A desaturase 1: −0.668
Hepatic genes (liver); rat liver, probe M14952, Rn.33815, oral gavage, experiments of Table 3
  Average Log (10) Ratio: apolipoprotein B: −0.255
Hepatic genes (liver); rat liver, probe M15114, Rn.83595, oral gavage, experiments of Table 3
  Average Log (10) Ratio: NCI_CGAP_Emb2 cDNA clone IMAGE: 4176354: 0.409
Hepatic genes (liver); rat liver, probe M30596, Rn.161920, oral gavage, experiments of Table 3
  Average Log (10) Ratio: malic enzyme 1: 0.554
Hepatic genes (liver); rat liver, probe NM_012565, Rn.10447, oral gavage, experiments of Table 3
  Average Log (10) Ratio: glucokinase: −1.066
Hepatic genes (liver); rat liver, probe NM_012620, Rn.29367, oral gavage, experiments of Table 3
  Average Log (10) Ratio: serine (or cysteine) peptidase inhibitor, clade E, member 1: 0.819
Hepatic genes (liver); rat liver, probe NM_012701, Rn.87064, oral gavage, experiments of Table 3
  Average Log (10) Ratio: adrenergic receptor, beta 1: −0.177
Hepatic genes (liver); rat liver, probe NM_012735, Rn.91375, oral gavage, experiments of Table 3
  Average Log (10) Ratio: hexokinase 2: −0.330
Hepatic genes (liver); rat liver, probe NM_012769, Rn.87228, oral gavage, experiments of Table 3
  Average Log (10) Ratio: guanylate cyclase 1, soluble, beta 3: −0.348
Hepatic genes (liver); rat liver, probe NM_012770, Rn.10933, oral gavage, experiments of Table 3
  Average Log (10) Ratio: guanylate cyclase 1, soluble, beta 2: −0.465
Hepatic genes (liver); rat liver, probe NM_012806, Rn.9911, oral gavage, experiments of Table 3
  Average Log (10) Ratio: mitogen activated protein kinase 10: 0.458
Hepatic genes (liver); rat liver, probe NM_012930, Rn.11389, oral gavage, experiments of Table 3
  Average Log (10) Ratio: carnitine palmitoyltransferase 2: 0.494
Hepatic genes (liver); rat liver, probe NM_013134, Rn.9437, oral gavage, experiments of Table 3
  Average Log (10) Ratio: 3-hydroxy-3-methylglutaryl-Coenzyme A reductase: 0.389
Hepatic genes (liver); rat liver, probe NM_013174, Rn.7018, oral gavage, experiments of Table 3
  Average Log (10) Ratio: transforming growth factor, beta 3: −0.380
Hepatic genes (liver); rat liver, probe NM_013200, Rn.6028, oral gavage, experiments of Table 3
  Average Log (10) Ratio: carnitine palmitoyltransferase 1b, muscle: 0.984
Hepatic genes (liver); rat liver, probe NM_017222, Rn.85891, oral gavage, experiments of Table 3
  Average Log (10) Ratio: solute carrier family 10, member 2: −0.544
Hepatic genes (liver); rat liver, probe NM_017322, Rn.9910, oral gavage, experiments of Table 3
  Average Log (10) Ratio: mitogen-activated protein kinase 9: −0.348
Hepatic genes (liver); rat liver, probe NM_017340, Rn.31796, oral gavage, experiments of Table 3
  Average Log (10) Ratio: acyl-Coenzyme A oxidase 1, palmitoyl: 0.336
Hepatic genes (liver); rat liver, probe NM_021578, Rn.40136, oral gavage, experiments of Table 3
  Average Log (10) Ratio: transforming growth factor, beta 1: −0.592
Hepatic genes (liver); rat liver, probe NM_022627, Rn.15423, oral gavage, experiments of Table 3
  Average Log (10) Ratio: protein kinase, AMP-activated, beta 2 non-catalytic subunit: −0.211
Hepatic genes (liver); rat liver, probe NM_031131, Rn.24539, oral gavage, experiments of Table 3
  Average Log (10) Ratio: transforming growth factor, beta 2: 0.020
Hepatic genes (liver); rat liver, probe NM_031559, Rn.2856, oral gavage, experiments of Table 3
  Average Log (10) Ratio: carnitine palmitoyltransferase 1a, liver: 0.264
Hepatic genes (liver); rat liver, probe NM_031976, Rn.3619, oral gavage, experiments of Table 3
  Average Log (10) Ratio: protein kinase, AMP-activated, beta 1 non-catalytic subunit: −0.409
Hepatic genes (liver); rat liver, probe NM_033352, Rn.177278, oral gavage, experiments of Table 3
  Average Log (10) Ratio: ATP-binding cassette, sub-family D (ALD), member 1 (DBSS): 0.450
Hepatic genes (liver); rat liver, probe NM_053329, Rn.164865, oral gavage, experiments of Table 3
  Average Log (10) Ratio: insulin-like growth factor binding protein, acid labile subunit: −0.658
Hepatic genes (liver); rat liver, probe NM_053551, Rn.30070, oral gavage, experiments of Table 3
  Average Log (10) Ratio: pyruvate dehydrogenase kinase, isoenzyme 4: 0.442
Hepatic genes (liver); rat liver, probe NM_053923, Rn.169550, oral gavage, experiments of Table 3
  Average Log (10) Ratio: phosphatidylinositol 3-kinase, C2 domain containing, gamma polypeptide: −0.485
Hepatic genes (liver); rat liver, probe NM_053994, Rn.11126, oral gavage, experiments of Table 3
  Average Log (10) Ratio: pyruvate dehydrogenase E1 alpha 2: −0.338
Hepatic genes (liver); rat liver, probe NM_057133, Rn.10712, oral gavage, experiments of Table 3
  Average Log (10) Ratio: nuclear receptor subfamily 0, group B, member 2: 0.367
Hepatic genes (liver); rat liver, probe NM_133618, Rn.11253, oral gavage, experiments of Table 3
  Average Log (10) Ratio: hydroxyacyl-Coenzyme A dehydrogenase/3-ketoacyl-Coenzyme A thiolase/enoyl-Coenzyme A hydratase (trifunctional protein), beta subunit: 0.409
Hepatic genes (liver); rat liver, probe NM_134382, Rn.4243, oral gavage, experiments of Table 3
  Average Log (10) Ratio: ELOVL family member 5, elongation of long chain fatty acids (yeast): −0.486
Hepatic genes (liver); rat liver, probe U08027, Rn.89705, oral gavage, experiments of Table 3
  Average Log (10) Ratio: Glycerol-3-phosphate dehydrate dehydrogenase (mtGPDH) mRNA, 3′UTR: 0.635
Hepatic genes (liver); rat liver, probe U36771, Rn.44456, oral gavage, experiments of Table 3
  Average Log (10) Ratio: glycerol-3-phosphate acyltransferase, mitochondrial: −0.156
Hepatic genes (liver); rat, in vivo, po
  Average Log (10) Ratio: Cytochrome P450, family 2, subfamily b, polypeptide 2: 0.629
  Average Log (10) Ratio: cytochrome P450, family 2, subfamily b, polypeptide 13: 0.499
  Average Log (10) Ratio: cytochrome P450, family 3, subfamily a, polypeptide 13: 0.550
  Average Log (10) Ratio: cytochrome P450, family 7, subfamily a, polypeptide 1: −0.168
  Average Log (10) Ratio: cytochrome P450, family 8, subfamily b, polypeptide 1: 0.394
[1]
  risk of cardiovascular events: paradoxically increased risk of cardiovascular events
